Experiment [1] has as its system HSB-2 cells. Description: Inhibition of HSB-2 leukemic cell line proliferation (WST-1). Type of experiment: cell-based, human. The conditions noted are these: cytotoxicity on HSB-2 cells, two days incubation, WST-1 read-out. The procedure: (§1) HSB2 cell line, a human acute lymphoblastic leukemia (ATCC; CCL-120.1) cell line, was grown in RPMI-1640 medium (Lonza, Belgium) supplemented with 10% fetal calf serum (Hyclone, US) and antibiotics. Exponential growing phase cells were seed in flat bottom 96-well microplates (TTP, Switzerland) at 50000 cells per well in 220 μl of medium with compounds (in different concentrations) and incubated for two days at 37° C., 5% CO2. After incubation, 100 μl of supernatant were removed and 10 μl of WST-1 (Roche, Switzerland) were added. After 2 hour incubation at 37° C., 5% CO2, optical densities were measured at 450 nm. Proliferation is calculated with respect of control points (no compound and treatment with Triton X100 to have maximum and minimum proliferation data). The IC50 was determined from a graph with at least four points, each derived from the mean of at least 2 experiments. […] The results are shown in Table 1 for a number of compounds.
(Tetrazolium assays rely on reduction of a dye to a coloured formazan, in cell work by metabolically active cells.)

The subject of experiment [2] is HL-60 cells. Description: Inhibition of HL-60 leukemic cell line proliferation (WST-1). Format: cell-based, human. The conditions noted are these: cytotoxicity on HL-60 cells, two days incubation, WST-1 read-out. The procedure:
as §1, with “HL-60 cell” for “HSB2 cell”, “human promyelocytic” for “human acute lymphoblastic”, “(ATCC; CCL-240)” for “(ATCC; CCL-120.1)”, “Table 2” for “Table 1”

On to `Nc1nc(N2CCN(C(=O)COc3ccc(Cl)cc3)CC2)c2nc(-c3ccc(Cl)c(Cl)c3)sc2n1` [Example 116, 5-amino-7-[4-(4-chlorophenoxyacetyl)piperazin-1-yl]-2-(3,4-dichlorophenyl)thiazolo[5,4-d]pyrimidine], for which the concentration for half-maximal inhibition (IC50) in experiment [1] (Homo sapiens, HSB2, 48 h) was 6.01 µM; in experiment [2] (Homo sapiens, 48 h), 8.59 µM. The corresponding values for `Nc1nc(N2CCN(C(=O)COc3ccc(Cl)cc3)CC2)c2nc(C3(c4ccc(Cl)cc4)CC3)sc2n1` [Example 117, 5-amino-7-[4-(4-chlorophenoxyacetyl)piperazin-1-yl]-2-(1-(4-chlorophenyl)cyclopropyl)thiazolo[5,4-d]pyrimidine] are 6.28 µM and over 10 µM. The like results for `Nc1nc(N2CCN(C(=O)COc3ccc(Cl)cc3)CC2)c2nc(CCc3ccccc3)sc2n1` [Example 118, 5-amino-7-[4-(4-chlorophenoxyacetyl)piperazin-1-yl]-2-(2-phenylethyl)thiazolo[5,4-d]pyrimidine] were, in that order, 4.53 µM and 9.97 µM.

In the case of `Nc1nc(N2CCN(C(=O)COc3ccc(Cl)cc3)CC2)c2nc(C3CC3)sc2n1` [Example 119, 5-amino-2-cyclopropyl-7-[4-(4-chlorophenoxyacetyl)piperazin-1-yl]-thiazolo[5,4-d]pyrimidine], the half-inhibitory concentration (IC50) in experiment [1] (Homo sapiens, HSB2, 48 h) amounted to 3.03 µM; in experiment [2] (Homo sapiens, 48 h), 3.81 µM. Turning to `Nc1nc(N2CCN(C(=O)COc3ccc(Cl)cc3)CC2)c2nc(C3CCCCC3)sc2n1` [Example 120, 5-amino-7-[4-(4-chlorophenoxyacetyl)piperazin-1-yl]-2-cyclohexylthiazolo[5,4-d]pyrimidine], the IC50 was 4.87 µM in experiment [1] (Homo sapiens, HSB2, 48 h) and over 10 µM in experiment [2] (Homo sapiens, 48 h).

As to `Nc1nc(N2CCN(C(=O)COc3ccc(Cl)cc3)CC2)c2nc(-c3ccc[n+]([O-])c3)sc2n1` [Example 121b, 5-amino-7-[4-(4-chlorophenoxyacetyl)piperazin-1-yl]-2-(N-oxopyridine-3-yl)thiazolo[5,4-d]pyrimidine], the concentration for half-maximal inhibition (IC50) in experiment [1] came to 6.19 µM; in experiment [2] it was 4.89 µM. For `Nc1nc(N2CCN(C(=O)COc3ccc(Cl)cc3)CC2)c2nc(-c3ccc(Cl)cc3)sc2n1` [Example 123, 5-amino-7-[4-(4-chlorophenoxyacetyl)piperazin-1-yl]-2-(4-chlorophenyl)thiazolo[5,4-d]pyrimidine], the IC50 amounted to 3.73 µM in experiment [1] (Homo sapiens, HSB2, 48 h) and 1.2 µM in experiment [2] (Homo sapiens, 48 h). The like results for `COc1cccc(-c2nc3c(N4CCN(C(=O)COc5ccc(Cl)cc5)CC4)nc(N)nc3s2)c1` [Example 124, 5-amino-7-[4-(4-chlorophenoxyacetyl)piperazin-1-yl]-2-(3-methoxyphenyl)thiazolo[5,4-d]pyrimidine] were, in that order, 2.29 µM and 0.96 µM. For the molecule `C[S+]([O-])c1nc2c(N3CCN(C(=O)COc4ccc(Cl)cc4)CC3)nc(N)nc2s1` (stereo not drawn) [Example 126, 5-amino-7-[4-(4-chlorophenoxyacetyl)piperazin-1-yl]-2-methylsulfinyl-thiazolo[5,4-d]pyrimidine], the half-maximal inhibitory concentration (IC50) in experiment [1] (Homo sapiens, HSB2, 48 h) was 5.47 µM; in experiment [2] (Homo sapiens, 48 h), 3.82 µM. As for `Nc1nc(N2CCN(C(=O)COc3ccc(Br)cc3)CC2)c2nc(-c3ccc(F)cc3)sc2n1` [Example 128, 5-amino-2-(4-fluorophenyl)-7-(4-[2-(4-bromophenoxy)acetyl]-piperazin-1-yl)-thiazolo[5,4-d]pyrimidine], the IC50 in experiment [1] was 5.62 µM; in experiment [2] (Homo sapiens, 48 h), 6.47 µM. Turning to `Nc1nc(N2CCN(C(=O)COc3cccc([N+](=O)[O-])c3)CC2)c2nc(-c3ccc(F)cc3)sc2n1` [Example 129, 5-amino-2-(4-fluorophenyl)-7-(4-[2-(3-nitrophenoxy)acetyl]-piperazin-1-yl)-thiazolo[5,4-d]pyrimidine], the half-maximal inhibitory concentration (IC50) in experiment [1] (Homo sapiens, HSB2, 48 h) was 4.76 µM; in experiment [2] (Homo sapiens, 48 h), 9.74 µM.

As for `Nc1nc(N2CCN(C(=O)COc3ccccc3)CC2)c2nc(-c3ccc(F)cc3)sc2n1` [Example 130, 5-amino-2-(4-fluorophenyl)-7-(4-(2-phenoxyacetyl)-piperazin-1-yl)-thiazolo[5,4-d]pyrimidine], the 50% inhibitory concentration (IC50) was 0.57 µM in experiment [1] (Homo sapiens, HSB2, 48 h) and 0.82 µM in experiment [2] (Homo sapiens, 48 h). The like results for `Nc1nc(N2CCN(C(=O)COc3cccc([N+](=O)[O-])c3)CC2)c2nc(CCc3ccc(F)cc3)sc2n1` [Example 131, 5-amino-2-[2-(4-fluorophenyl)ethyl]-7-(4-[2-(3-nitrophenoxy)acetyl]piperazin-1-yl)-thiazolo[5,4-d]pyrimidine] were, in that order, over 10 µM and over 10 µM. As for `Cc1cccc(NC(=O)N2CCN(c3nc(N)nc4sc(CCc5ccc(F)cc5)nc34)CC2)c1` [Example 133, 5-amino-2-[2-(4-fluorophenyl)ethyl]-7-(4-m-tolylcarbamoylpiperazin-1-yl)-thiazolo[5,4-d]pyrimidine], the concentration for half-maximal inhibition (IC50) is 12.3 µM in experiment [1] (Homo sapiens, HSB2, 48 h) and over 10 µM in experiment [2] (Homo sapiens, 48 h).

With `Nc1nc(N2CCN(C(=O)COc3ccccc3)CC2)c2nc(CCc3ccc(F)cc3)sc2n1` [Example 134, 5-amino-2-[2-(4-fluorophenyl)ethyl]-7-(4-[2-phenoxyacetyl]piperazin-1-yl)-thiazolo[5,4-d]pyrimidine], the IC50 in experiment [1] (Homo sapiens, HSB2, 48 h) is over 10 µM; in experiment [2] (Homo sapiens, 48 h) it was over 10 µM. Turning to `CCC(c1ccc(F)cc1)c1nc2c(N3CCN(C(=O)COc4ccc(Cl)cc4)CC3)nc(N)nc2s1` (stereo not drawn) [Example 150, 5-amino-2-[1-(4-fluorophenyl)propyl]-7-(4-[2-(4-chlorophenoxy)acetyl]piperazin-1-yl)thiazolo[5,4-d]pyrimidine], the IC50 in experiment [1] (Homo sapiens, HSB2, 48 h) was over 10 µM; in experiment [2] (Homo sapiens, 48 h), over 10 µM. Turning to `Nc1nc(N2CCN(C(=O)COc3ccc(Cl)cc3)CC2)c2nc(CCc3cccs3)sc2n1` [Example 154, 5-amino-2-(2-thiophen-2-ylethyl)-7-(4-[2-(4-chloro-phenoxy)acetyl]piperazin-1-yl)thiazolo[5,4-d]pyrimidine], the half-inhibitory concentration (IC50) was 4.04 µM in experiment [1] (Homo sapiens, HSB2, 48 h) and 6.45 µM in experiment [2] (Homo sapiens, 48 h). For `Nc1nc(N2CCN(C(=O)COc3ccc(Cl)cc3)CC2)c2nc(CCc3ccc(F)cc3)oc2n1` [Example 172, 1-(4-(5-amino-2-(4-fluorophenethyl)oxazolo[5,4-d]pyrimidin-7-yl)piperazin-1-yl)-2-(4-chlorophenoxy)ethanone], the IC50 in experiment [1] (Homo sapiens, HSB2, 48 h) is over 10 µM; in experiment [2] (Homo sapiens, 48 h) it was over 10 µM. As to `Nc1nc(N2CCN(C(=O)COc3ccc(Cl)cc3)CC2)c2nc(C3CC3)oc2n1` [Example 185, 5-amino-2-cyclopropyl-7-[4-(4-chlorophenoxyacetyl)piperazin-1-yl]-oxazolo[5,4-d]pyrimidine], the IC50 in experiment [1] (Homo sapiens, HSB2, 48 h) is over 10 µM; in experiment [2] (Homo sapiens, 48 h), over 10 µM. For the molecule `COCc1nc2c(N3CCN(C(=O)COc4ccc(Cl)cc4)CC3)nc(N)nc2o1` [Example 186, 5-amino-7-[4-(4-chlorophenoxyacetyl)piperazin-1-yl]-2-methoxylmethyloxazolo[5,4-d]pyrimidine], the concentration for half-maximal inhibition (IC50) is over 10 µM in experiment [1] (Homo sapiens, HSB2, 48 h) and over 10 µM in experiment [2] (Homo sapiens, 48 h). `CCCCCc1nc2c(N3CCN(C(=O)COc4ccc(Cl)cc4)CC3)nc(N)nc2o1` [Example 188, 5-amino-7-[4-(4-chlorophenoxyacetyl)piperazin-1-yl]-2-pentyloxazolo[5,4-d]pyrimidine]: the half-inhibitory concentration (IC50) in experiment [1] (Homo sapiens, HSB2, 48 h) was over 10 µM; in experiment [2] (Homo sapiens, 48 h), over 10 µM. Consider `Nc1nc(N2CCN(C(=O)COc3ccc(Cl)cc3)CC2)c2nc(CCc3ccccc3)oc2n1` [Example 189, 5-amino-2-(2-phenylethyl)-7-[4-(4-chlorophenoxyacetyl)piperazin-1-yl]oxazolo[5,4-d]pyrimidine], for which the half-inhibitory concentration (IC50) in experiment [1] (Homo sapiens, HSB2, 48 h) was over 10 µM; in experiment [2] (Homo sapiens, 48 h), over 10 µM.

For the molecule `Nc1nc(N2CCN(C(=O)COc3cccc([N+](=O)[O-])c3)CC2)c2nc(-c3ccc(F)cc3)oc2n1` [Example 193, 5-amino-2-(4-fluorophenyl)-7-(4-[2-(3-nitrophenoxy)acetyl]-piperazin-1-yl)-oxazolo[5,4-d]pyrimidine], the half-inhibitory concentration (IC50) in experiment [1] (Homo sapiens, HSB2, 48 h) is over 10 µM; in experiment [2] (Homo sapiens, 48 h), over 10 µM. Regarding `Cc1cccc(NC(=O)N2CCN(c3nc(N)nc4oc(CCc5ccc(F)cc5)nc34)CC2)c1` [Example 196, 5-amino-2-[2-(4-fluorophenyl)ethyl]-7-(4-m-tolylcarbamoylpiperazin-1-yl)-oxazolo[5,4-d]pyrimidine], the half-maximal inhibitory concentration (IC50) in experiment [1] (Homo sapiens, HSB2, 48 h) is over 10 µM; in experiment [2] (Homo sapiens, 48 h), over 10 µM. In the case of `CN(C(=O)CN1CCN(c2nc(N)nc3oc(CCc4ccc(F)cc4)nc23)CC1)c1ccccc1` [Example 198, 5-amino-2-[2-(4-fluorophenyl)ethyl]-7-(4-[(methylphenyl-carbamoyl)methyl]piperazin-1-yl)-oxazolo[5,4-d]pyrimidine], the IC50 in experiment [1] (Homo sapiens, HSB2, 48 h) is over 10 µM; in experiment [2] (Homo sapiens, 48 h), over 10 µM. As for `Nc1nc(N2CCN(C(=O)COc3ccc(Cl)cc3)CC2)c2nc(-c3ccc(F)cc3)[nH]c2n1` [Example 389, 1-(4-(2-amino-8-(4-fluorophenyl)-9H-purin-6-yl)piperazin-1-yl)-2-(4-chlorophenoxy)ethanone], in experiment [2] (Homo sapiens, 48 h), the half-maximal inhibitory concentration (IC50) is over 10 µM.

As usually defined, the IC50 is the point on the concentration scale where inhibition reaches its midpoint.

The values are drawn from patent US9573966B2, “Anti-cancer activity of novel bicyclic heterocycles” (Katholieke Universiteit Leuven, K.U.Leuven R&D, priority 2010, dated 2017).
